In ChEMBL document CHEMBL1201862, “PubChem BioAssay data set” (2004):
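Briefly, cells in 96-well plates were exposed to five compound concentrations for 48 h, and endpoints were estimated by linear interpolation. Abbreviation: GI50, concentration required for 50% inhibition of growth.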 Calls of active or inactive are those of the source. Cut-off read from the data, not from the text of the source: active = GI50 up to about 1.1 µM and inactive = higher.

Columns and labels:
Assay in all cases: inhibition of tumour cell growth, NCI panel, 48 h
Malme-3M = test system: Malme-3M
LOX IMVI = test system: LOX IMVI
OVCAR-3 = test system: OVCAR-3
SK-MEL-28 = test system: SK-MEL-28
SR = test system: SR
HCC 2998 = test system: HCC 2998
MDA-N = test system: MDA-N
Hs-578T = test system: Hs-578T
OVCAR-8 = test system: OVCAR-8
MOLT-4 = test system: MOLT-4
A549 = test system: A549
U-251 = test system: U-251
SF-539 = test system: SF-539
PC-3 = test system: PC-3
786-0 = test system: 786-0
OVCAR-5 = test system: OVCAR-5
SK-MEL-2 = test system: SK-MEL-2
CCRF-CEM = test system: CCRF-CEM
COLO 205 = test system: COLO 205
BT-549 = test system: BT-549

Row | Compound | GI50 (Malme-3M) | GI50 (LOX IMVI) | GI50 (OVCAR-3) | GI50 (SK-MEL-28) | GI50 (SR) | GI50 (HCC 2998) | GI50 (MDA-N) | GI50 (Hs-578T) | GI50 (OVCAR-8) | GI50 (MOLT-4) | GI50 (A549) | GI50 (U-251) | GI50 (SF-539) | GI50 (PC-3) | GI50 (786-0) | GI50 (OVCAR-5) | GI50 (SK-MEL-2) | GI50 (CCRF-CEM) | GI50 (COLO 205) | GI50 (BT-549)
1 | CC(C)(C)[Si](C)(C)OCC1OC(n2ccc(=O)[nH]c2=O)C(O[Si](C)(C)C(C)(C)C)/C1=C/C#N (stereo unspecified) | 12.8 µM (inactive) | 5 µM (inactive) | 7.29 µM (inactive) | 1.49 µM (inactive) | 3.5 µM (inactive) | 5.48 µM (inactive) | 4.76 µM (inactive) | 5.73 µM (inactive) | 6.65 µM (inactive) | 2.72 µM (inactive) | 4.18 µM (inactive) | 4.21 µM (inactive) | 5.14 µM (inactive) | 2.88 µM (inactive) | 4.37 µM (inactive) | 20.4 µM (inactive) | 0.757 µM (active) | 4.23 µM (inactive) | 2.61 µM (inactive) | –
2 | COC1CC2CCC(C)[C@](O)(O2)C(=O)C(=O)N2CCCCC2C(=O)OC(C(C)CC2CCC(O)C(OC)C2)CC(=O)C(C)C=C(C)C(OC(=O)CN(C)C)C(OC)C(=O)C(C)CC(C)/C=C/C=C/C=C\1C (stereo partly specified) | < 0.01 µM (active) | < 0.01 µM (active) | 9.79 µM (inactive) | 0.973 µM (active) | < 0.01 µM (active) | – | – | < 0.01 µM (active) | 0.403 µM (active) | < 0.01 µM (active) | 11 µM (inactive) | < 0.01 µM (active) | < 0.01 µM (active) | < 0.01 µM (active) | 10.8 µM (inactive) | 12.6 µM (inactive) | < 0.0419 µM (active) | < 0.01 µM (active) | 11.3 µM (inactive) | < 0.01 µM (active)
3 | N=C(N)N/N=C/c1c(-c2ccccc2[N+](=O)[O-])nc2sccn12 | 15.7 µM (inactive) | 19.9 µM (inactive) | 24.9 µM (inactive) | 30.8 µM (inactive) | 14.4 µM (inactive) | – | – | 29.1 µM (inactive) | 32.2 µM (inactive) | 17.7 µM (inactive) | 34.1 µM (inactive) | 15.8 µM (inactive) | 19.2 µM (inactive) | 24.3 µM (inactive) | 19.5 µM (inactive) | 30.7 µM (inactive) | 15.1 µM (inactive) | 19.4 µM (inactive) | 15.8 µM (inactive) | 30.7 µM (inactive)
4 | C/C(=N\Nc1nc2ccccc2n1C)c1cnccn1 | 0.065 µM (active) | 0.129 µM (active) | 0.0326 µM (active) | 0.565 µM (active) | 0.0649 µM (active) | 1.33 µM (inactive) | 0.753 µM (active) | – | 0.0615 µM (active) | < 0.0261 µM (active) | 0.218 µM (active) | 0.339 µM (active) | 0.692 µM (active) | 0.0426 µM (active) | 0.0671 µM (active) | – | 0.839 µM (active) | 0.0513 µM (active) | < 0.0139 µM (active) | 5.25 µM (inactive)
5 | O=C(Cn1cc(-c2ccccc2)nn1)NC1CCCCC1 | > 100 µM (inactive) | > 100 µM (inactive) | – | > 100 µM (inactive) | > 100 µM (inactive) | 54.5 µM (inactive) | – | – | > 100 µM (inactive) | > 100 µM (inactive) | > 100 µM (inactive) | > 100 µM (inactive) | > 100 µM (inactive) | > 100 µM (inactive) | > 100 µM (inactive) | > 100 µM (inactive) | > 100 µM (inactive) | > 100 µM (inactive) | > 100 µM (inactive) | > 100 µM (inactive)
6 | N#Cc1nc(C2CCC2)oc1N | > 100 µM (inactive) | > 100 µM (inactive) | > 100 µM (inactive) | > 100 µM (inactive) | > 100 µM (inactive) | > 100 µM (inactive) | > 100 µM (inactive) | > 100 µM (inactive) | > 100 µM (inactive) | > 100 µM (inactive) | > 100 µM (inactive) | > 100 µM (inactive) | > 100 µM (inactive) | > 100 µM (inactive) | > 100 µM (inactive) | > 100 µM (inactive) | > 100 µM (inactive) | 22.8 µM (inactive) | > 100 µM (inactive) | –
7 | COC1(C)OC[C@@]2(C)OC(C)C1(C)C2O[Si](C(C)C)(C(C)C)C(C)C (stereo partly specified) | 18 µM (inactive) | 20.7 µM (inactive) | 20.9 µM (inactive) | 38.4 µM (inactive) | 27.6 µM (inactive) | 20.1 µM (inactive) | 31.4 µM (inactive) | 22.2 µM (inactive) | 36.8 µM (inactive) | 21.2 µM (inactive) | 32.2 µM (inactive) | 28.5 µM (inactive) | 33.1 µM (inactive) | 31.2 µM (inactive) | 43.2 µM (inactive) | 26.6 µM (inactive) | 21 µM (inactive) | 25.1 µM (inactive) | 17.8 µM (inactive) | –
8 | CC1(C)OC(=O)C(=Cc2ccc([N+](=O)[O-])s2)C(=O)O1 | 19.2 µM (inactive) | 16.7 µM (inactive) | 10.6 µM (inactive) | 18.9 µM (inactive) | 2.72 µM (inactive) | 11.3 µM (inactive) | 14.9 µM (inactive) | – | 11.4 µM (inactive) | 8.22 µM (inactive) | 90.8 µM (inactive) | 15.4 µM (inactive) | 15.4 µM (inactive) | 19.2 µM (inactive) | 16.9 µM (inactive) | 16.6 µM (inactive) | – | 13.2 µM (inactive) | 16.6 µM (inactive) | 13.4 µM (inactive)
9 | N#C/C(=C\n1ccc(=O)[nH]c1=S)C(N)=O | > 100 µM (inactive) | > 100 µM (inactive) | < 0.01 µM (active) | > 100 µM (inactive) | > 100 µM (inactive) | > 100 µM (inactive) | > 100 µM (inactive) | > 100 µM (inactive) | > 100 µM (inactive) | > 100 µM (inactive) | > 100 µM (inactive) | > 100 µM (inactive) | > 100 µM (inactive) | > 100 µM (inactive) | > 100 µM (inactive) | > 100 µM (inactive) | > 100 µM (inactive) | > 100 µM (inactive) | > 100 µM (inactive) | –
10 | COC1CC(n2ccc(=O)[nH]c2=O)OC1CO (stereo unspecified) | > 100 µM (inactive) | > 100 µM (inactive) | > 100 µM (inactive) | > 100 µM (inactive) | > 100 µM (inactive) | > 100 µM (inactive) | > 100 µM (inactive) | – | > 100 µM (inactive) | > 100 µM (inactive) | > 100 µM (inactive) | > 100 µM (inactive) | > 100 µM (inactive) | > 100 µM (inactive) | > 100 µM (inactive) | > 100 µM (inactive) | > 100 µM (inactive) | > 100 µM (inactive) | > 100 µM (inactive) | –
11 | COC(=O)[C@@]12CCCC(=O)[C@@H]1[C@H]1CCCC[C@H]12 | > 100 µM (inactive) | > 100 µM (inactive) | > 100 µM (inactive) | > 100 µM (inactive) | > 100 µM (inactive) | > 100 µM (inactive) | > 100 µM (inactive) | – | > 100 µM (inactive) | 30.6 µM (inactive) | > 100 µM (inactive) | > 100 µM (inactive) | > 100 µM (inactive) | > 100 µM (inactive) | > 100 µM (inactive) | > 100 µM (inactive) | > 100 µM (inactive) | 59.2 µM (inactive) | > 100 µM (inactive) | > 100 µM (inactive)
12 | CS/C(N)=N/c1cccc2ccccc12 | > 10 µM (inactive) | > 10 µM (inactive) | > 10 µM (inactive) | > 10 µM (inactive) | > 10 µM (inactive) | > 10 µM (inactive) | > 10 µM (inactive) | – | > 10 µM (inactive) | > 10 µM (inactive) | > 10 µM (inactive) | > 10 µM (inactive) | > 10 µM (inactive) | > 10 µM (inactive) | > 10 µM (inactive) | – | > 10 µM (inactive) | > 10 µM (inactive) | > 10 µM (inactive) | –
13 | CC1=NN(c2ccccc2)C(=O)/C1=C/c1ccc(O)cc1 | > 100 µM (inactive) | > 100 µM (inactive) | > 100 µM (inactive) | > 100 µM (inactive) | 84.3 µM (inactive) | > 100 µM (inactive) | > 100 µM (inactive) | > 100 µM (inactive) | > 100 µM (inactive) | > 100 µM (inactive) | > 100 µM (inactive) | > 100 µM (inactive) | > 100 µM (inactive) | > 100 µM (inactive) | > 100 µM (inactive) | > 100 µM (inactive) | > 100 µM (inactive) | > 100 µM (inactive) | > 100 µM (inactive) | –
14 | COc1ccc(C(=O)c2nc3ccccc3nc2N2CCN(c3ccccc3)CC2)cc1OC | > 100 µM (inactive) | > 100 µM (inactive) | > 100 µM (inactive) | > 100 µM (inactive) | > 100 µM (inactive) | > 100 µM (inactive) | > 100 µM (inactive) | > 100 µM (inactive) | > 100 µM (inactive) | > 100 µM (inactive) | > 100 µM (inactive) | > 100 µM (inactive) | > 100 µM (inactive) | > 100 µM (inactive) | > 100 µM (inactive) | > 100 µM (inactive) | > 100 µM (inactive) | > 100 µM (inactive) | > 100 µM (inactive) | –
15 | NC(=O)C(=CNC(=S)Nc1ccccc1)C(N)=O | > 100 µM (inactive) | > 100 µM (inactive) | 1.05 µM (active) | > 100 µM (inactive) | > 100 µM (inactive) | > 100 µM (inactive) | > 100 µM (inactive) | 45 µM (inactive) | > 100 µM (inactive) | > 100 µM (inactive) | > 100 µM (inactive) | > 100 µM (inactive) | > 100 µM (inactive) | > 100 µM (inactive) | > 100 µM (inactive) | > 100 µM (inactive) | > 100 µM (inactive) | > 100 µM (inactive) | > 100 µM (inactive) | –
